Read-outs that look alike come from different tables or passages of the source.
What was measured:
[1] = biological target: T1, Muscarinic M1 (Homo sapiens, UniProt P11229); conditions: cited from earlier work
T1 construct: host or cells: CHO-K1 cells

[2] = biological target: T1, Muscarinic M1; assay: Radioligand binding 252610; conditions: read-out: IC50 Concurrent
[3] = biological target: Muscarinic M3 (Homo sapiens, UniProt P20309); conditions: cited from earlier work
[4] = biological target: T2, Muscarinic M2 (Homo sapiens, UniProt P08172); conditions: cited from earlier work
T2 construct: host or cells: CHO-K1 cells

[5] = assay standard, general statement; cited from earlier work
[6] = biological target: Opiate δ1 (OP1, DOP) (Homo sapiens, UniProt P41143); conditions: cited from earlier work
[7] = cited from earlier work

T1 sequence (P11229 whole entry): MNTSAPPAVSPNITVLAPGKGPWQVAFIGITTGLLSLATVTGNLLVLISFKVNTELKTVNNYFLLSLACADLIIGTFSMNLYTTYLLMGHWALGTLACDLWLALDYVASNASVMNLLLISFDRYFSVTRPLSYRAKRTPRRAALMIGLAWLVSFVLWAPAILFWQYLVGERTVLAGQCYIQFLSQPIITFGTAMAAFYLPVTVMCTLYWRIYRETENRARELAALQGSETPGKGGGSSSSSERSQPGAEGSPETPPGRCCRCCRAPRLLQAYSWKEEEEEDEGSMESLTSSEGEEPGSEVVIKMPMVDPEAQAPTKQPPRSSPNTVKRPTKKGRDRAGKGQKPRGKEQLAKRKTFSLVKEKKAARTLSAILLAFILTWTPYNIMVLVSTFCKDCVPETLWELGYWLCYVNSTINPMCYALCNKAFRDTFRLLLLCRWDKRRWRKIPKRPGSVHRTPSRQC
Sequence of Muscarinic M3 (P20309 whole entry): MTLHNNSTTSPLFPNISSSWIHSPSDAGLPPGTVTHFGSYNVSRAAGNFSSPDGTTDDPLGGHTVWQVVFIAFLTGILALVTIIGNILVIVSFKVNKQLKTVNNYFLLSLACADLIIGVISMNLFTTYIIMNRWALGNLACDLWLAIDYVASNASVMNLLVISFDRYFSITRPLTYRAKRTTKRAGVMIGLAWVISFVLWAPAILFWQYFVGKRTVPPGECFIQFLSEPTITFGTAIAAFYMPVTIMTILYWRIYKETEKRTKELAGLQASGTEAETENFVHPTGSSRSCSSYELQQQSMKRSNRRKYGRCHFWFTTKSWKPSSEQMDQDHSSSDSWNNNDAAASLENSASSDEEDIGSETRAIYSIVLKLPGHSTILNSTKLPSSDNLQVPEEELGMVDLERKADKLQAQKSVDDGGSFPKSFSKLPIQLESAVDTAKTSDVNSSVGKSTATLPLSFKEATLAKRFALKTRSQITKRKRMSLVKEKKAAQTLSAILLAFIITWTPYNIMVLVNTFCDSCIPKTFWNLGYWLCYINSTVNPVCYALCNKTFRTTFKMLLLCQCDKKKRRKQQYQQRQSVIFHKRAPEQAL
Sequence of Opiate δ1 (OP1, DOP) (P41143 whole entry): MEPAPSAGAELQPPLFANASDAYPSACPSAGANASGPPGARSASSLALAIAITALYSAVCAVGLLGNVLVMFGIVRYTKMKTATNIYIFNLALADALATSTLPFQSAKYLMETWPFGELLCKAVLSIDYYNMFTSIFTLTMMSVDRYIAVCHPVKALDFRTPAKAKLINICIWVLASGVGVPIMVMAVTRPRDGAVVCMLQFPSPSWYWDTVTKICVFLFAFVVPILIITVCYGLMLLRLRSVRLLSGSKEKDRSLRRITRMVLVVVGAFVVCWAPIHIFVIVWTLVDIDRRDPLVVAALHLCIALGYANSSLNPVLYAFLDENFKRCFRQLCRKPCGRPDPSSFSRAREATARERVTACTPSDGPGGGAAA
T2 sequence (P08172 whole entry): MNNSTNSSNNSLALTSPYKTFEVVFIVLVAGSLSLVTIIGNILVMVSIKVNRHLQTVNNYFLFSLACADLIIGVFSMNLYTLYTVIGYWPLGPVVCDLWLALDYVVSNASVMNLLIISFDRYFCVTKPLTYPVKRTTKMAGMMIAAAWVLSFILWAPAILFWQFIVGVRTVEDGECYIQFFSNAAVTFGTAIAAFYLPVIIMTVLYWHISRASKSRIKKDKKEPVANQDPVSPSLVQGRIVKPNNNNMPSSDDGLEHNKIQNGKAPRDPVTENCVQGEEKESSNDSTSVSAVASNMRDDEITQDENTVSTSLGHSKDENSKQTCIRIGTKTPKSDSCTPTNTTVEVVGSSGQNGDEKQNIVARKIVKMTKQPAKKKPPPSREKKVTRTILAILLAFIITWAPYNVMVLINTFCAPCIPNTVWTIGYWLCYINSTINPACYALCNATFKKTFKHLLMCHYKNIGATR

C[N+]1(C)CCC(OC(=O)C(c2ccccc2)c2ccccc2)CC1.[I-] [Compound 4-DAMP, 4-DAMP]
nH Historical [1]: 1.0
IC50 ([1]; read-out: IC50 Historical): 4.5 nM
IC50 [2]: 5.51 nM
nH Historical [3]: 1.10
nH Historical [4]: 1.0

OCCN(CCO)c1nc(N2CCCCC2)c2nc(N(CCO)CCO)nc(N3CCCCC3)c2n1 [Dipyridamole]
solubility of standard [5]: poorly to moderately soluble

Oc1ccc2c3c1O[C@H]1c4[nH]c5ccccc5c4C[C@@]4(O)[C@@H](C2)N(CC2CC2)CC[C@]314 [Naltrindole]
nH Historical [6]: 1.0

CCN(CC)CCOC(=O)c1ccc(N)cc1 [Procaine]
stability in human plasma of standard [7]: highly unstable
